How the values were obtained:
[1] = Dissociation constant determination of peptide-Tb^3+ complexes by Tb^3+ luminescence titration; assay type: binding
Method: (§1) All experiments were conducted on a Photon Technology International fluorescence spectrometer model QM-3/2003 with a CW source and a Hamamatsu R928PMT using 10 nm excitation and emission slit widths. A 495 nm highpass filter (model 495FG03-25 AM-53074; Andover Corporation) was used on the emission monochromator. Spectra were acquired at room temperature with a scan rate of 1 nm per second. In dissociation constant determinations, the observed luminescence (photon counts s^−1) was not background-corrected and represents the raw fluorescence data. In the presence of buffer only (no peptide, no metal), the luminescence at 544 nm is similar to the luminescence observed in the presence of peptide at the limit of low concentrations of Tb^3+ (approximately 1.8×10^5 photon counts s^−1). Spectral data (FIGS. 3a, […]) represent the average of at least three independent trials and correspond to the averaged spectra that yielded the data points at the given Tb^3+ concentrations in the dissociation constant determination plots. Spectral data in the manuscript were background-corrected. Peptide solutions were prepared by the dilution of peptide stock solutions into buffer containing 5 mM HEPES (pH 7.8) and 100 mM NaCl (final concentrations). Spectra were acquired in 10 mm quartz fluorescence cells (Starna). Tb^3+ titrations were conducted by dilution of a Tb^3+ solution into a peptide solution. All TbCl3 solutions were standardized by titration with a standard solution of EDTA (1 mM) in the presence of xylenol orange indicator (10 μM) and sodium acetate buffer (pH 6.0, 10 mM). EDTA (1 mM) was added to 500 μL of a 1 mM Tb^3+ solution diluted from a 10 mM stock until the end point was reached; Tb^3+ concentration was determined based on 1:1 binding. Each individual emission spectrum represents an independently prepared solution of peptide and metal. The Tb^3+ emission band at 544 nm was used to evaluate metal binding.
To determine dissociation constants for Tb^3+-peptide complexes, Tb^3+ titrations were conducted in solutions of 5 mM HEPES (pH 7.8) and 100 mM NaCl. Each data point represents an independently prepared solution of peptide and metal. Observed luminescence (photon counts s^−1) at the emission maximum of 544 nm were plotted against Tb^3+ concentration to calculate the final Kd. Data points indicate the average of at least three independent titrations. Error bars indicate standard error. […] The quadratic equation solution to the dissociation constant (equation 1) was employed to generate an accurate solution to the binding equilibrium under conditions when the dissociation constant, peptide concentration, and metal concentration may be similar. For phosphorylated pKID-pTyr11, the dissociation constant was also measured in the presence of 2 mM Mg^2+ and 100 μM Ca^2+ to study the effect of these metals on Tb^3+-peptide complex formation.

[2] = Terbium luminescence spectra of non-phosphorylated versus phosphorylated peptides; details: 10 μM peptide, 10 mM HEPES (pH 7.8), 100 mM NaCl, excitation 280 nm
Method: FIGS. 3a, 3e and 3f show the luminescence spectra of 10 μM non-phosphorylated (red) and phosphorylated (blue) (a) pKID-pTyr11, (e) pKID-pTyr15a, and (f) pKID-pTyr15b, in the presence of (a, f) 20 μM Tb^3+ or (e) 80 μM Tb^3+. Experiments were conducted in water with 10 mM HEPES (pH 7.8) and 100 mM NaCl with excitation at 280 nm. […] The fold luminescence differentiation between non-phosphorylated and phosphorylated peptides depends on the relative Tb^3+ affinities of the peptides and on the Tb^3+ concentration. FIGS. 3b, 3c, and 3d show the TOCSY spectra of phosphorylated pKID-pTyr11 in the absence (red) and presence (blue) of La^3+ indicating metal-induced peptide folding: (b) H^N—Hα region; (c) H^N—Hβ region; (d) aromatic region.
as §1, with “Peptide solutions were prepared by the dilution of peptide stock solutions into buffer containing 5 mM HEPES (pH 7.8) and 100 mM NaCl (final concentrations).” left out, “Tb^3+ titrations were conducted by dilution of a Tb^3+ solution into a peptide solution. All TbCl3 solutions were standardized by titration with a standard solution of EDTA (1 mM) in the presence of xylenol orange indicator (10 μM) and sodium acetate buffer (pH 6.0, 10 mM).” left out, “Each individual emission spectrum represents an independently prepared solution of peptide and metal. The Tb^3+ emission band at 544 nm was used to evaluate metal binding.” left out

[3] = peptide-Tb^3+ complex, 10 μM peptide, 5 mM HEPES (pH 7.8), 100 mM NaCl
[4] = 10 μM peptide, footnote a: calculated by defining maximum luminescence as equal to that of the phosphorylated peptide-Tb^3+ complex (no saturation)

DKNADGWIDAEAK [EF Control-E11, control peptide with Glu at residue 11, reference compound]
Kd [1, 3]: 1820 ± 140 µM

Ac-DKNADGWIDAAAAKpYAK-NH2 [phosphorylated pKID-pTyr15a]
fold greater luminescence of phosphorylated than non-phosphorylated peptide ([2]; 80 μM Tb^3+): 17.6 fold
Kd [1, 3]: 217 ± 21 µM

DKNADGWIDAAEK [EF Hand-E12, EF Hand consensus peptide with Glu at residue 12, reference compound]
Kd [1, 3]: 88 ± 8 µM

Ac-DKDGDGWISPAAAKYAK-NH2 [non-phosphorylated pKID-pTyr15b]
Kd [1, 4]: 1930 µM

Ac-DKNADGWIDAApYK-NH2 [phosphorylated pKID-pTyr12]
Kd [1, 3]: 209 ± 32 µM

Ac-DKNADGWIDAAAAKYAK-NH2 [non-phosphorylated pKID-pTyr15a]
Kd [1, 4]: 3200 µM

Ac-DKNADGWIDAYAK-NH2 [non-phosphorylated pKID-pTyr11, model tyrosine kinase-inducible domain peptide, Tyr at residue 11]
Kd [1, 3]: 1900 ± 280 µM

Ac-DKNADGWIDAAYK-NH2 [non-phosphorylated pKID-pTyr12, control peptide with Tyr at residue 12]
Kd [1, 3]: 6470 µM

Ac-DKDGDGWISPAAAKpYAK-NH2 [phosphorylated pKID-pTyr15b]
fold greater luminescence of phosphorylated than non-phosphorylated peptide ([2]; 20 μM Tb^3+): 10.1 fold
Kd [1, 3]: 47 ± 5 µM

Ac-DKNADGWIDApYAK-NH2 [phosphorylated pKID-pTyr11, pY indicates phosphotyrosine]
fold greater luminescence of phosphorylated than non-phosphorylated peptide ([2]; 20 μM Tb^3+): 6.4 fold
Tb^3+ binding in the presence of competing metals ([1]; in the presence of 100 μM Ca^2+ and 2 mM Mg^2+): identical
Kd ([1]; peptide-Tb^3+ complex, 2 μM peptide with 2 mM Mg^2+ and 100 μM Ca^2+): 30 µM
Kd ([1]; peptide-Tb^3+ complex, 2 μM peptide, 5 mM HEPES (pH 7.8), 100 mM NaCl): 32 µM
Kd [1, 3]: 54 ± 9 µM
fold greater Tb^3+ affinity than the non-phosphorylated peptide ([1]; phosphorylated versus non-phosphorylated peptide): 35 fold
